In one data set the test system is Cyperus iria; CYPIR. The experiment in a line: Postemergence herbicidal activity of mixtures in the greenhouse, sedge weed control. It is filed as in vivo. The following applies: 21 days after application. As for the experimental part: Seeds of the desired test plant species were planted in 80% mineral soil/20% grit planting mixture, which typically has a pH of 7.2 and an organic matter content of approximately 3 percent, in plastic pots with a surface area of 128 square centimeters (cm^2). The growing medium was steam sterilized. The plants were grown for 7-19 days (d) in a greenhouse with an approximate 14-hour (h) photoperiod which was maintained at about 29° C. during the day and 26° C. during the night. Nutrients and water were added on a regular basis and supplemental lighting was provided with overhead metal halide 1000-Watt lamps as necessary. The plants were treated with postemergence foliar applications when they reached the second to fourth true leaf stage. All treatments were applied using a randomized complete block trial design, with 4 replications per treatment. Treatments consisted of the compounds as listed in Tables 1 and 3, each compound applied alone and in combination. Formulated amounts of penoxsulam and bentazon, were placed in 60 milliliter (mL) glass vials and dissolved in a volume of 60 mL of a water solution containing Agri-dex crop oil concentrate in a 1% v/v ratio. Compound requirements are based upon a 12 mL application volume at a rate of 187 liters per hectare (L/ha). Spray solutions of the mixtures were prepared by adding the stock solutions to the appropriate amount of dilution solution to form a 12 mL spray solution with active ingredients in single and two way combinations. Formulated compounds were applied to the plant material with an overhead Mandel track sprayer equipped with […] nozzles calibrated to deliver 187 L/ha at a spray height of 18 inches (43 centimeters (cm)) above average plant canopy. The treated plants and control plants were placed in a greenhouse as described above and watered by sub-irrigation to prevent wash-off of the test compounds. […] Visual weed control was scored on a scale of 0 to 100 percent where 0 corresponds to no injury and 100 corresponds to complete kill. […]

Data set [1] deals with Sagittaria trifolia (SAGTR). The experiment in a line: Postemergence herbicidal activity of mixtures in the field, broadleaf weed control. It is filed as in vivo. The following applies: 6 to 45 days after application. As for the experimental part: (§1) Field trials were conducted in rice using standard herbicide small plot research methodology. Plots varied from 3×3 meter (m) to 3×10 m (width×length) with 4 replicates per treatment. The rice crop was grown using normal cultural practices for fertilization, seeding, watering, flooding and maintenance to ensure good growth of the crop and the weeds. All treatments in the field trials were applied using a CO2 backpack sprayer calibrated to apply 187 L/ha spray volume. Commercially available products of penoxsulam and bentazon were mixed in water at appropriate formulated product rates to achieve the desired rates based on a unit area of application (hectare) to achieve the desired rates as shown. Treatments were rated at 6 to 45 d after application as compared to the untreated control plants. Visual weed control was scored on a scale of 0 to 100 percent where 0 corresponds to no injury and 100 corresponds to complete kill. Colby's equation was used to determine the herbicidal effects expected from the mixtures (Colby, S. R. Calculation of the synergistic and antagonistic response of herbicide combinations. Weeds 1967, 15, 20-22.). The following equation was used to calculate the expected activity of mixtures containing two active ingredients, A and B: Expected=A+B−(A×B/100) A=observed efficacy of active ingredient A at the same concentration as used in the mixture. B=observed efficacy of active ingredient B at the same concentration as used in the mixture.

For data set [2], the system named is Echinochloa crus-galli (ECHCG). The experiment in a line: Postemergence herbicidal activity of mixtures in the field, grass weed control. Conditions: 6 to 45 days after application. It is filed as in vivo. As for the experimental part: as §1, with “B=observed efficacy of active ingredient B at the same concentration as used in the mixture.” left out
The test system of the next data set is Rice (ORYSA). The experiment in a line: Safening of injury in rice in the greenhouse. It is filed as in vivo, Orysa sativa. The following applies: 21 days after application. How it is done: Seeds of the desired test plant species were planted in 80% mineral soil/20% grit planting mixture, which typically has a pH of 7.2 and an organic matter content of approximately 3 percent, in plastic pots with a surface area of 128 square centimeters (cm^2). The growing medium was steam sterilized. The plants were grown for 7-19 days (d) in a greenhouse with an approximate 14-hour (h) photoperiod which was maintained at about 29° C. during the day and 26° C. during the night. Nutrients and water were added on a regular basis and supplemental lighting was provided with overhead metal halide 1000-Watt lamps as necessary. The plants were treated with postemergence foliar applications when they reached the second to fourth true leaf stage. All treatments were applied using a randomized complete block trial design, with 4 replications per treatment. Treatments consisted of the compounds as listed in Tables 1 and 3, each compound applied alone and in combination. Formulated amounts of penoxsulam and bentazon, were placed in 60 milliliter (mL) glass vials and dissolved in a volume of 60 mL of a water solution containing Agri-dex crop oil concentrate in a 1% v/v ratio. […] Visual weed control was scored on a scale of 0 to 100 percent where 0 corresponds to no injury and 100 corresponds to complete kill. […]

[3] abbreviates: bentazon-sodium 1000 g/ha alone.

Molecules are shown by their SMILES.

On to `COc1cnc(OC)n2nc(NS(=O)(=O)c3c(OCC(F)F)cccc3C(F)(F)F)nc12` [Penoxsulam, 2-(2,2-difluoroethoxy)-N-(5,8-dimethoxy-[1,2,4]triazolo[1,5-c]pyrimidin-2-yl)-6-(trifluoromethyl)benzenesulfonamide], for which the “% Control CYPIR Ob” value in the data set with Cyperus iria; CYPIR (penoxsulam 3 g/ha alone) is 20%. Further, the entries for the “% Control SAGTR Ob” value in data set [1] (penoxsulam 15 g/ha alone) and in data set [1] (penoxsulam 23 g/ha alone) were 38% and 45%, respectively. Moreover, in data set [2] (penoxsulam 38 g/ha alone), the “% Control ECHCG Ob” value was found to be 30%.
Regarding `CC(C)N1C(=O)c2ccccc2NS1(=O)=O` [Bentazon-Sodium, 3-(1-methylethyl)-1H-2,1,3-benzothiadiazin-4(3H)-one 2,2-dioxide], the “% Control CYPIR Ob” value with Cyperus iria; CYPIR (bentazon-sodium 500 g/ha alone) is 55%; in the data set on Cyperus iria; CYPIR (setting [3]), 72%. Further, the “% Control SAGTR Ob” value in data set [1] (bentazon-sodium 1100 g/ha alone) was determined as 78%. For the same compound, in data set [2] (bentazon-sodium 2000 g/ha alone), the “% Control ECHCG Ob” value is given as 0%. In addition, the results for the “% Control ORYSA Ob” value in the data set with Rice (ORYSA) (bentazon-sodium 500 g/ha alone) and with Rice (ORYSA) (setting [3]) were 14% and 16%, respectively.

Source of the values: patent US10085451B2, “Synergistic herbicidal composition containing penoxsulam and bentazon” (Dow AgroSciences LLC, priority 2010, dated 2018).
